From patent publication US5157052A, “Method for inhibiting IgE production” (priority 1990, dated 1992)

What was measured:
Format in all cases: in vivo, mouse (Balb/c female)
IgG1 = assay: Serum IgG1 in anti-IgD stimulated mice (two site sandwich ELISA, Assay B)
B220 = assay: Splenocyte cell surface density/distribution (FACS): B220
IgE = assay: Inhibition of de novo IgE synthesis after oral (intragastric) administration; conditions: for IgE ± SD: 20 μg intragastric TID days 3 and 4
Protocol: ELISA (enzyme linked immunosorbant assay) measurements of IgE are as follows. About 5 μg of B1E3 antibody in 100 μl borate buffered saline (pH8.5) is added to wells of a NuncImmulon II 96 well plate (DiRuscio & Assoc., St. Louis, Mo.) at 37° C. for 90 minutes. The non-bound antibody is removed by flicking the plate. Unreacted sites on the plastic plate are blocked by adding about 200 μl of a 2% solution of newborn bovine serum (NBS) in PBS at 37° C. for 60 minutes. The standard IgE (or an unknown murine serum sample) is diluted to between about 4 ng/ml-256 ng/ml in Hanks-HS (20 mM Hepes, 2% NBS in Hanks Balanced Salt Solution, Gibco, Grand Island, N.Y.) or to 1/200 to 1/1000 in Hanks-HS respectively. 100 μl of standard (or unknown dilutions) are added in triplicate to the wells of the plate and allowed to absorb to B1E3 antibody at about 37° C. for 2-4 hours. The solution is removed by flicking the plate and each well is washed with about 0.5 ml 0.05% Tween 20-PBS 5 times. About 100 μl of biotinylated R1E4, called the primary antibody, diluted to 200 ng/ml is added to all wells and incubated at about 4° C. overnight. The solution is removed by flicking the plate and washed 5 times as described above. The developing reagent (Avidin and biotin-horse radish peroxidase) is incubated in 2% NBS in PBS at ambient temperature for 30 minutes, according to manufacturer's specifications (Vector Laboratories, Burlingame, Calif.). About 100 μl of developing reagent is added to each well and incubated at ambient temperature for 30 minutes. Colorimetric substrate for the developing reagent (ABTS peroxidase substrate system, KPL, Gaithersburg, Md.) is prepared by mixing equal volumes of solutions A and B and incubating at ambient temperature for 60 minutes. The developing reagent solution is removed by flicking the plate and washed 5 times as described above. About 100 μl of the mixture of substrates is added to each well and incubated at ambient temperature for 60 minutes. The optical density of each well is determined on a BioTek ELISA reader (Biotek Instruments, Inc., Burlington, Vermont) and the absorbance data transferred electronically to a DEC VAX mainframe computer. A standard curve is fitted to the IgE standard optical densities using straight line, linear regression statistical fits. IgE in the unknown serum samples is determined by comparing the optical density of the unknown to the standard curve and multiplying that number by the dilution of serum used in the assay.
Three groups of 4 Balb/c female mice per group are injected with both 100 μg FF1-4D5 antibody and 100 μg H∂A1 antibody (Groups B, C, and D). Another group of 4 Balb/c female mice is injected with PBS alone, unstimulated control Group A. One of the stimulated group were not given any prostaglandin control Group B. On day 3 and 4, individual groups receive an intragastric feeding TID of 0.25 ml of 20 μg of (±) methyl 11α,16-dihydroxy-16-methyl-9-oxoprosta-5Z,13E-dien-1-oate (Group C) or 20 μg of prostaglandin E2 (Group D) dissolved in PBS.

CCCCC(C)(O)C/C=C/[C@H]1[C@H](O)CC(=O)[C@@H]1C/C=C\CCCC(=O)OC (mixture of isomers) [(±) methyl 11α,16-dihydroxy-16-methyl-9-oxoprosta-5Z,13E-dien-1-oate]
IgG1 ± SD (IgG1; 2 μg IP days 3 and 4, day 7 (control 4808)): 3220 ± 985 µg/mL | IgG1 ± SD (IgG1; 2 μg IP days 3 and 4, day 8 (control 13818)): 12947 ± 2195 µg/mL | IgG1 ± SD (IgG1; 2 μg IP days 3 and 4, day 9 (control 17700)): 19938 ± 3279 µg/mL | IgG1 ± SD (IgG1; 2 μg IP days 3 and 4, day 11 (control 17100)): 17589 ± 1923 µg/mL | IgG1 ± SD (IgG1; 2 μg IP days 3 and 4, day -1 baseline before treatment): 215 ± 124 µg/mL | IgG1 ± SD (IgG1; 5 μg IP days 3 and 4, day 7): 6902 ± 3604 µg/mL | IgG1 ± SD (IgG1; 5 μg IP days 3 and 4, day 8): 18202 ± 5327 µg/mL | IgG1 ± SD (IgG1; 5 μg IP days 3 and 4, day 9): 27069 ± 3257 µg/mL | IgG1 ± SD (IgG1; 5 μg IP days 3 and 4, day 11): 23205 ± 6506 µg/mL | IgG1 ± SD (IgG1; 5 μg IP days 3 and 4, day -1 baseline before treatment): 248 ± 189 µg/mL | IgG1 ± SD (IgG1; 10 μg IP days 3 and 4, day 7): 6952 ± 3410 µg/mL | IgG1 ± SD (IgG1; 10 μg IP days 3 and 4, day 8): 17649 ± 3158 µg/mL | IgG1 ± SD (IgG1; 10 μg IP days 3 and 4, day 9): 26978 ± 11752 µg/mL | IgG1 ± SD (IgG1; 10 μg IP days 3 and 4, day 11): 26361 ± 6660 µg/mL | IgG1 ± SD (IgG1; 10 μg IP days 3 and 4, day -1 baseline before treatment): 166 ± 14 µg/mL | IgG1 ± SD (IgG1; 20 μg IP days 3 and 4, day 7): 6816 ± 3349 µg/mL | IgG1 ± SD (IgG1; 20 μg IP days 3 and 4, day 8): 16838 ± 4174 µg/mL | IgG1 ± SD (IgG1; 20 μg IP days 3 and 4, day 9): 23900 ± 11791 µg/mL | IgG1 ± SD (IgG1; 20 μg IP days 3 and 4, day 11): 24998 ± 7169 µg/mL | IgG1 ± SD (IgG1; 20 μg IP days 3 and 4, day -1 baseline before treatment): 255 ± 66 µg/mL | IgG1 ± SD (IgG1; 40 μg IP days 3 and 4, day 7): 5168 ± 2391 µg/mL | IgG1 ± SD (IgG1; 40 μg IP days 3 and 4, day 9): 24337 ± 4729 µg/mL | IgG1 ± SD (IgG1; 40 μg IP days 3 and 4, day 11): 25930 ± 4376 µg/mL | Percentage Positive Cells (B220; anti-IgD stimulated mice, 20 μg days 3 and 4, day 7 (PBS 49.3)): 61.2 ± .9% | Mean Channel Log Fluorescence (B220; anti-IgD stimulated mice, 20 μg days 3 and 4, day 7 (PBS 107)): 112 ± 4 | Percentage Positive Cells (B220; unstimulated mice, 20 μg (PBS 49.6)): 50.6 ± 4.6% | Mean Channel Log Fluorescence (B220; unstimulated mice, 20 μg (PBS 104)): 105 ± 2.5 | inhibition of de novo IgE synthesis after oral administration (IgE; 20 μg intragastric TID): significantly inhibits de novo IgE synthesis after oral administration | IgE ± SD (IgE; day 8 (stimulated control 5792, unstimulated 1015)): 1490 ± 525 ng/mL | IgE ± SD (IgE; day 10 (stimulated control 1498)): 1131 ± 198 ng/mL | IgE ± SD (IgE; day -1 baseline before treatment): 1115 ± 201 ng/mL
